Source: PMC10786919, “Design-rules for stapled peptides with in vivo activity and their application to Mdm2/X antagonists” (Nature Communications, 2024)
In brackets after ≈: the same amount, converted by molar mass. Positions of bridges follow the written chain, without caps; N, C: chain ends. Non-standard residues stand in square brackets, D forms with d. Residues, ends and D or L forms follow the SMILES beside them. Lys(N3) = [N-]=[N+]=NCCCC[C@H](N)C(=O)O; R8 = C=CCCCCCC[C@@](C)(N)C(=O)O; Cba = N[C@@H](CC1CCC1)C(=O)O; S5 = C=CCCC[C@](C)(N)C(=O)O; βAla = NCCC(=O)O; Sar = CNCC(=O)O

Legend:
[1] = Experimental LogD (partition coefficient); settings: not stated, Partition Coeff LogD
[2] = Solubility assay (kinetic solubility, PBS pH 7); assay type: physicochemical; settings: pH 7, aqueous buffer, kinetic from dmso stock, pH 7, PBS; read-out: Solubility
Outline: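 Quantitation uses an external standard at 100 µM, prepared from 10 mM stock in acetonitrile:methanol:DMSO (10:80:10). Solubility (µM) = (peak area of sample ÷ peak area of standard) × standard concentration.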

[3] = test system: HCT116 cells; experiment: Lactate dehydrogenase (LDH) release assay; assay type: cell-based
Outline: (§1)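 Read-out was lactate dehydrogenase release, reflecting loss of membrane integrity, in reporter-engineered HCT116 cells (p53-responsive β-lactamase) seeded at 8000 cells per well. Final DMSO was 0.5%, and reported values are geometric means from three or more biological repeats.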

[4] = Lactate dehydrogenase (LDH) release assay; assay type: cell-based; settings: LDH: Cytotoxicity assay: EC50
Outline: as §1

[5] = EPSA; assay type: physicochemical
[6] = test system: Ca Ski cell line; settings: 72 h
Outline: (§2)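 Compound dilution series (10 points, 3-fold, 10 mM top stock in DMSO) tested on overnight-plated Ca Ski cells in RPMI1640/10% FBS and on blasticidin-selected p53RE-bla HCT-116 cells in McCoy's 5A; read-out was CellTiter-Glo 2.0 luminescence after room-temperature equilibration.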

[7] = test system: CellSensor p53RE-bla HCT-116 Cell Line; settings: 72 h
Outline: as §2

[8] = physchem
[9] = in vitro; settings: Nanoclick permeability assay EC50
Outline: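 Azido-peptide permeability was read as loss of NanoBRET signal (donor 450 nm, acceptor 610 nm) after adding NanoBret618-azide at 10 μM final.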

## CC(=O)N[C@@H](CCCNC(=N)N)C(=O)NCCCCCC(=O)N[C@@H](CC(C)C)C(=O)N[C@H](C(=O)N[C@@H](Cc1ccccc1)C(=O)N[C@]1(C)CCCCCCC=CCCC[C@@](C)(C(=O)N[C@@H](CO)C(=O)N[C@@H](C)C(=O)N[C@@H](C)C(N)=O)NC(=O)[C@H](CC2CCC2)NC(=O)[C@H](CCC(N)=O)NC(=O)[C@H](C)NC(=O)[C@H](Cc2c[nH]c3ccccc23)NC(=O)[C@H](Cc2ccc(O)cc2)NC(=O)[C@H](CCC(=O)O)NC1=O)[C@@H](C)O [MP-4001]
[1]
  logD: 2.64
[2]
  solubility kinetic: 4 µM (≈ 8.06 µg/mL)
[3]
  LDH: Cytotoxicity assay: % Effect: -1.283%
[4]
  EC50: > 50 µM
[5]; EPSA
  EPSA: 207 A^2

## CC(=O)N[C@@H](CCCNC(=N)N)C(=O)N[C@@H](CCCNC(=N)N)C(=O)NCCC(=O)N[C@@H](CC(C)C)C(=O)N[C@H](C(=O)N[C@@H](Cc1ccccc1)C(=O)N[C@]1(C)CCCCCCC=CCCC[C@@](C)(C(=O)N[C@@H](CO)C(=O)N[C@@H](C)C(=O)N[C@@H](C)C(N)=O)NC(=O)[C@H](CC2CCC2)NC(=O)[C@H](CCC(N)=O)NC(=O)[C@H](C)NC(=O)[C@H](Cc2c[nH]c3ccccc23)NC(=O)[C@H](Cc2ccc(O)cc2)NC(=O)[C@H](CCC(=O)O)NC1=O)[C@@H](C)O [MP-4002]
[1]
  logD: 2.47
[2]
  solubility kinetic: 11 µM (≈ 23.4 µg/mL)
[3]
  LDH: Cytotoxicity assay: % Effect: 50.55%
[4]
  EC50: 37.7 µM
[5]; EPSA
  EPSA: 212 A^2

## CC(=O)N[C@@H](CCCCN=[N+]=[N-])C(=O)NCCC(=O)N[C@@H](CC(N)=O)C(=O)N[C@H](C(=O)N[C@@H](Cc1ccccc1)C(=O)N[C@]1(C)CCCCCCC=CCCC[C@@](C)(C(=O)N[C@@H](CO)C(=O)N[C@@H](C)C(=O)N[C@@H](C)C(N)=O)NC(=O)[C@H](CC2CCC2)NC(=O)[C@H](CCC(N)=O)NC(=O)[C@H](CC(N)=O)NC(=O)[C@H](Cc2c[nH]c3ccccc23)NC(=O)[C@H](Cc2ccc(O)cc2)NC(=O)[C@H](CC(N)=O)NC1=O)[C@@H](C)O [MP-497]
[1]
  logD: 2.49
[6]
  EC50: > 49.8 µM
[7]
  EC50: 7.81 µM
[8]
  EPSA: 202 A^2
[2]
  solubility kinetic: 5 µM (≈ 10 µg/mL)
[9]
  cell entry EC50: 0.271 µM
[3]
  LDH: Cytotoxicity assay: % Effect: 3.16%
[4]
  EC50: > 50.6 µM

## CC(=O)N[C@@H](CCCNC(=N)N)C(=O)N[C@@H](CCCNC(=N)N)C(=O)NCCC(=O)N[C@@H](CCCCN=[N+]=[N-])C(=O)N[C@@H](CC(C)C)C(=O)N[C@H](C(=O)N[C@@H](Cc1ccccc1)C(=O)N[C@]1(C)CCCCCCC=CCCC[C@@](C)(C(=O)N[C@@H](CO)C(=O)N[C@@H](C)C(=O)N[C@@H](C)C(N)=O)NC(=O)[C@H](CC2CCC2)NC(=O)[C@H](CCC(N)=O)NC(=O)[C@H](C)NC(=O)[C@H](Cc2c[nH]c3ccccc23)NC(=O)[C@H](Cc2ccc(O)cc2)NC(=O)[C@H](CCC(=O)O)NC1=O)[C@@H](C)O [MP-006]
[1]
  logD: 2.72
[2]
  solubility kinetic: 2 µM (≈ 4.57 µg/mL)
[3]
  LDH: Cytotoxicity assay: % Effect: 47.04%
[4]
  EC50: 26.2 µM
[5]; EPSA
  EPSA: 226 A^2

## CC(=O)N[C@@H](CCCCN=[N+]=[N-])C(=O)N[C@@H](CC(C)C)C(=O)N[C@H](C(=O)N[C@@H](Cc1ccccc1)C(=O)N[C@]1(C)CCCCCCC=CCCC[C@@](C)(C(=O)N[C@@H](CCC(=O)O)C(N)=O)NC(=O)[C@H](CC2CCC2)NC(=O)[C@H](CCC(N)=O)NC(=O)[C@H](C)NC(=O)[C@H](Cc2c[nH]c3ccccc23)NC(=O)[C@H](Cc2ccc(O)cc2)NC(=O)[C@H](CCC(=O)O)NC1=O)[C@@H](C)O [MP-4008] (Ac-[Lys(N3)]LTF[R8]EYWAQ[Cba][S5]E-NH2; staple 5-12)
[1]
  logD: 2.48
[2]
  solubility kinetic: 23 µM (≈ 41.4 µg/mL)
[3]
  LDH: Cytotoxicity assay: % Effect: -0.7368%
[4]
  EC50: > 50 µM
[5]
  EPSA: Poorly Behaved

## CC(=O)N[C@@H](CCCCN=[N+]=[N-])C(=O)NCCC(=O)N[C@@H](CCC(N)=O)C(=O)N[C@H](C(=O)N[C@@H](Cc1ccccc1)C(=O)N[C@]1(C)CCCCCCC=CCCC[C@@](C)(C(=O)N[C@@H](CO)C(=O)N[C@@H](C)C(=O)N[C@@H](C)C(N)=O)NC(=O)[C@H](CC2CCC2)NC(=O)[C@H](CCC(N)=O)NC(=O)[C@H](CCC(N)=O)NC(=O)[C@H](Cc2c[nH]c3ccccc23)NC(=O)[C@H](Cc2ccc(O)cc2)NC(=O)[C@H](CCC(N)=O)NC1=O)[C@@H](C)O [MP-5498] (Ac-[Lys(N3)][βAla]QTF[R8]QYWQQ[Cba][S5]SAA-NH2; staple 6-13)
[1]
  logD: 2.6
[6]
  EC50: 38.3 µM
[7]
  EC50: 6.24 µM
[8]
  EPSA: 198 A^2
[2]
  solubility kinetic: 19.7 µM (≈ 40.2 µg/mL)
[9]
  cell entry EC50: 0.0494 µM
[3]
  LDH: Cytotoxicity assay: % Effect: 8.092%
[4]
  EC50: > 50.6 µM

## CC(=O)N(C)CC(=O)N(C)CC(=O)N(C)CC(=O)N(C)CC(=O)N(C)CC(=O)N(C)CC(=O)N(C)CC(=O)N(C)CC(=O)N[C@@H](CC(C)C)C(=O)N[C@H](C(=O)N[C@@H](Cc1ccccc1)C(=O)N[C@]1(C)CCCCCCC=CCCC[C@@](C)(C(=O)N[C@@H](CO)C(=O)N[C@@H](C)C(=O)N[C@@H](C)C(N)=O)NC(=O)[C@H](CC2CCC2)NC(=O)[C@H](CCC(N)=O)NC(=O)[C@H](C)NC(=O)[C@H](Cc2c[nH]c3ccccc23)NC(=O)[C@H](Cc2ccc(O)cc2)NC(=O)[C@H](CCC(=O)O)NC1=O)[C@@H](C)O [MP-623] (Ac-[Sar][Sar][Sar][Sar][Sar][Sar][Sar][Sar]LTF[R8]EYWAQ[Cba][S5]SAA-NH2; staple 12-19)
[1]
  logD: 2.41
[2]
  solubility kinetic: 150 µM (≈ 347 µg/mL)
[3]
  LDH: Cytotoxicity assay: % Effect: 3.314%
[4]
  EC50: > 50.7 µM
[5]; EPSA
  EPSA: 200 A^2

## CC(=O)N[C@@H](CC(C)C)C(=O)N[C@H](C(=O)N[C@@H](Cc1ccccc1)C(=O)NC(C)(C)C(=O)N[C@@H](CCC(=O)O)C(=O)N[C@@H](Cc1ccc(O)cc1)C(=O)N[C@H](Cc1c[nH]c2ccccc12)C(=O)N[C@@H](C)C(=O)N[C@@H](CCC(N)=O)C(=O)N[C@@H](CC1CCC1)C(=O)NC(C)(C)C(=O)N[C@@H](CO)C(=O)N[C@@H](C)C(=O)N[C@@H](C)C(N)=O)[C@@H](C)O [MP-254]
[1]
  logD: 2.08
[2]
  solubility kinetic: 92.5 µM (≈ 150 µg/mL)
[4]
  EC50: > 50 µM
[5]; EPSA
  EPSA: 188 A^2

## CC(=O)N[C@@H](CCCCN=[N+]=[N-])C(=O)NCCC(=O)N[C@@H](CCC(=O)O)C(=O)N[C@H](C(=O)N[C@@H](Cc1ccccc1)C(=O)N[C@]1(C)CCCCCCC=CCCC[C@@](C)(C(=O)N[C@@H](CO)C(=O)N[C@@H](C)C(=O)N[C@@H](C)C(N)=O)NC(=O)[C@H](CC2CCC2)NC(=O)[C@H](CCC(N)=O)NC(=O)[C@H](CCC(=O)O)NC(=O)[C@H](Cc2c[nH]c3ccccc23)NC(=O)[C@H](Cc2ccc(O)cc2)NC(=O)[C@H](CCC(=O)O)NC1=O)[C@@H](C)O [MP-65496] (Ac-[Lys(N3)][βAla]ETF[R8]EYWEQ[Cba][S5]SAA-NH2; staple 6-13)
[1]
  logD: 1.98
[6]
  EC50: > 49.8 µM
[7]
  EC50: 1.53 µM
[8]
  EPSA: 324 A^2
[2]
  solubility kinetic: 83.7 µM (≈ 171 µg/mL)
[9]
  cell entry EC50: 0.42 µM
[3]
  LDH: Cytotoxicity assay: % Effect: 2.338%
[4]
  EC50: > 50.6 µM

## CC(=O)N[C@@H](CCCCN=[N+]=[N-])C(=O)NCC(=O)N[C@@H](CO)C(=O)NCC(=O)N[C@H](C(=O)N[C@@H](CO)C(=O)N[C@@H](Cc1ccccc1)C(=O)N[C@]1(C)CCCCCCC=CCCC[C@@](C)(C(=O)N[C@@H](CCC(=O)O)C(N)=O)NC(=O)[C@H](CC(C)C)NC(=O)[C@H](CC(C)C)NC(=O)[C@H](C)NC(=O)[C@H](Cc2c[nH]c3ccccc23)NC(=O)[C@H](Cc2ccc(O)cc2)NC(=O)[C@H](CCC(=O)O)NC1=O)[C@@H](C)O [MP-010]
[1]
  logD: 2.07
[2]
  solubility kinetic: 23 µM (≈ 44.8 µg/mL)
[3]
  LDH: Cytotoxicity assay: % Effect: 19.63%
[4]
  EC50: > 50 µM
[5]
  EPSA: Poorly Behaved

## CC(=O)N[C@@H](CC(C)C)C(=O)N[C@H](C(=O)N[C@@H](Cc1ccccc1)C(=O)NC(C)(C)C(=O)N[C@@H](CCC(=O)O)C(=O)N[C@@H](Cc1ccc(O)cc1)C(=O)N[C@H](Cc1c[nH]c2ccccc12)C(=O)N[C@@H](CCC(N)=O)C(=O)N[C@@H](CC(C)C)C(=O)N[C@@H](CC1CCC1)C(=O)NC(C)(C)C(=O)N[C@@H](CO)C(=O)N[C@@H](C)C(=O)N[C@@H](C)C(N)=O)[C@@H](C)O [MP-256]
[1]
  logD: 2.18
[2]
  solubility kinetic: 91.5 µM (≈ 152 µg/mL)
[4]
  EC50: > 50 µM
[5]; EPSA
  EPSA: 185 A^2
